Test results published in patent US11795177B2, “Substituted quinoline analogs as aldehyde dehydrogenase 1A1 (ALDH1A1) inhibitors” (THE UNITED STATES OF AMERICA, AS REPRESENTED BY THE …, priority 2017, dated 2023).
pIC50: −log10 of the molar value. Where a name gives a salt, the structure may show the parent alone.

Each compound was assayed on MIA PaCa-2 cells (assay: MIA PaCa2 cell-based assay (1,536-well high-content imaging ALDEFLUOR assay)). Settings: Homo sapiens, 0.5 h, ALDEFLUOR BAAA substrate 500 nM, 30 minutes.
Parameters: species or system human
Method: Example 359. MIA PaCa2 Cell-Based Assay (In Vitro Assay)
1,536-Well High-Content Imaging ALDEFLUOR Assay
The ALDEFLUOR™ kit was purchased from […] Technologies (Vancouver, Canada; #01700). MIA PaCa-2 cells (5 μL; 1,000 cells/well) were dispensed into black, optical quality (cyclic olefin copolymer) clear bottom, medium binding TC treated 1,536-well plates (Aurora Microplates, Whitefish Mont.) using a Multidrop Combi dispenser (ThermoFisher) and incubated overnight (37° C., 5% CO2, 85% RH). Media (RPMI 1640 (Life Technologies, Carlsbad, Calif.), supplemented with 2 mM L-Glutamine (Life Technologies), 10% HyClone™ fetal bovine serum (FBS, GE Healthcare, Piscataway, N.J.) and 100 U/mL penicillin and 100 μg/mL streptomycin (Life Technologies)) was subsequently removed by centrifuging plates upside down using a plate adaptor to collect media. A solution of BAAA substrate ([…] Technologies) and Hoechst 33342 (ThermoFisher, final concentrations of 500 nM and 0.5 nM, respectively) in ALDEFLUOR™ buffer ([…] Technologies #01700) was dispensed onto cells using a Multidrop Combi followed by immediate transfer (23 nL) of compound or control solutions using a Wako Pin-tool (final percentage of DMSO in the cell plates was 0.5%). Unless otherwise noted, all compounds were assayed as 16-point dilutions spanning a final concentration range of 1.4 nM to 47.8 μM. The neutral and positive assay controls were DMSO and DEAB (4.6 μM), respectively. Cells were incubated for 30 minutes or the indicated amount of time at 37° C., 5% CO2, 85% RH to allow the conversion of BAAA into BAA. Supernatant was subsequently removed by centrifugation as described above, then ALDEFLUOR™ buffer (3 μl) was dispensed by Multidrop Combi before imaging on an IN Cell 2200 (GE Healthcare).
The above assay was modified for an online robotic screening system. After cell plating and overnight incubation, 4 μL of media were removed using a 64-tip metal aspirator head on a Wako aspirator station, leaving 1 μL remaining in the well, followed by a 4 μL dispense of BAAA and Hoechst 33342 in ALDEFLUOR™ buffer, for a final concentration of 500 nM and 0.5 nM, respectively Immediately following the dispense, 23 nL of compound or control solutions were transferred using a Wako Pin-tool. Cells were incubated for 30 minutes at 37° C., 5% CO2, 85% RH, followed by a 4 μL media removal using the Wako aspirator, and a subsequent 3 μL addition of ALDEFLUOR™ buffer. Plates were then immediately read on the IN Cell 2200 as described below.
Image Acquisition and Analysis
For images captured on the IN Cell 2200 widefield automated microscope, a 10×0.45 NA Plan Apo objective lens was used to capture the entire well of the 1,536-well plate using standard DAPI (390/18×, 432/48 m) and FITC (475/28×, 525/48 m) filter sets at 50 msec and 100 msec exposures, respectively. Images were subsequently analyzed using IN Cell Investigator v1.6.2 analysis software's canned Multi-Target Analysis algorithm (GE Healthcare). Hoechst stained nuclei were identified using top hat segmentation with a minimum area of 75 μm^2 and sensitivity of 93. BAA-retaining cells captured via FITC channel, were identified using multiscale top hat segmentation with a minimum area of 100 μm^2 and a sensitivity setting of 16. […] Data were plotted using GraphPad Prism software (GraphPad, San Diego, Calif.).

**Q.** With N#CC1CCN(c2c(C(=O)N3CCN(C(=O)C4CC4)CC3)cnc3ccc(F)cc23)CC1 [Cpd. 302, 1-(3-(4-(cyclopropanecarbonyl)piperazine-1-carbonyl)-6-fluoroquinolin-4-yl)piperidine-4-carbonitrile] as the compound, how does the pIC50 read?
**A.** < 5.00

**Q.** How did the pIC50 turn out when CS(=O)(=O)N1CCN(c2c(C(=O)N3CCN(C(=O)C4CC4)CC3)cnc3ccc(F)cc23)CC1 [Cpd. 303, (4-(cyclopropanecarbonyl)piperazin-1-yl)(6-fluoro-4-(4-(methylsulfonyl)piperazin-1-yl)quinolin-3-yl)methanone] was run?
**A.** 5.00 to 6.00

**Q.** How did the pIC50 turn out when CC(=O)N1CCN(c2c(C(=O)N3CCN(C(=O)C4CC4)CC3)cnc3ccc(F)cc23)CC1 [Cpd. 304, 1-(4-(3-(4-(cyclopropanecarbonyl)piperazine-1-carbonyl)-6-fluoroquinolin-4-yl)piperazin-1-yl)ethanone] was run?
**A.** < 5.00

**Q.** With CS(=O)(=O)N1CCN(C(=O)c2cnc3ccc(F)cc3c2N2CCC(C#N)CC2)CC1 [Cpd. 305, 1-(6-fluoro-3-(4-(methylsulfonyl)piperazine-1-carbonyl)quinolin-4-yl)piperidine-4-carbonitrile] as the compound, how does the pIC50 read?
**A.** < 5.00

**Q.** How did the pIC50 turn out when CC(C)(C)c1ccc(-c2c(C(=O)N3CCN(S(C)(=O)=O)CC3)cnc3ccc(F)cc23)cc1 [Cpd. 306, (4-(4-(tert-butyl)phenyl)-6-fluoroquinolin-3-yl)(4-(methylsulfonyl)piperazin-1-yl)methanone] was run?
**A.** > 6.30

**Q.** How did the pIC50 turn out when CS(=O)(=O)N1CCN(C(=O)c2cnc3ccc(F)cc3c2-c2ccc(C3(C#N)CCC3)cc2)CC1 [Cpd. 308, 1-(4-(6-fluoro-3-(4-(methylsulfonyl)piperazine-1-carbonyl)quinolin-4-yl)phenyl)cyclobutanecarbonitrile] was run?
**A.** > 6.30

**Q.** CS(=O)(=O)N1CCN(C(=O)c2cnc3ccc(F)cc3c2-c2ccc(C3(C#N)CCCC3)cc2)CC1 [Cpd. 309, 1-(4-(6-fluoro-3-(4-(methylsulfonyl)piperazine-1-carbonyl)quinolin-4-yl)phenyl)cyclopentanecarbonitrile] was tested. Which pIC50 did it give?
**A.** > 6.30

**Q.** How did the pIC50 turn out when CC(C)(C#N)c1ccc(-c2c(C(=O)N3CCN(S(C)(=O)=O)CC3)cnc3ccc(F)cc23)c(F)c1 [Cpd. 311, 2-(3-fluoro-4-(6-fluoro-3-(4-(methylsulfonyl)piperazine-1-carbonyl)quinolin-4-yl)phenyl)-2-methylpropanenitrile] was run?
**A.** > 6.30

**Q.** With N#CC1(c2ccccc2)CCN(c2c(C(=O)N3CCN(C(=O)C4CC4)CC3)cnc3ccc(Cl)cc23)CC1 [Cpd. 313, 1-(6-chloro-3-(4-(cyclopropanecarbonyl)piperazine-1-carbonyl)quinolin-4-yl)-4-phenylpiperidine-4-carbonitrile] as the compound, how does the pIC50 read?
**A.** > 6.30

**Q.** How did the pIC50 turn out when CS(=O)(=O)N1CCN(C(=O)c2cnc3ccc(F)cc3c2-c2ccc(C3(C#N)CC3)cc2F)CC1 [Cpd. 315, 1-(3-fluoro-4-(6-fluoro-3-(4-(methylsulfonyl)piperazine-1-carbonyl)quinolin-4-yl)phenyl)cyclopropanecarbonitrile] was run?
**A.** > 6.30

**Q.** How did the pIC50 turn out when CS(=O)(=O)N1CCN(C(=O)c2cnc3ccc(Cl)cc3c2N2CCC(C#N)(c3ccccc3)CC2)CC1 [Cpd. 316, 1-(6-chloro-3-(4-(methylsulfonyl)piperazine-1-carbonyl)quinolin-4-yl)-4-phenylpiperidine-4-carbonitrile] was run?
**A.** > 6.30

**Q.** How did the pIC50 turn out when COc1ccc2ncc(C(=O)N3CCN(S(C)(=O)=O)CC3)c(N3CCC(C#N)(c4ccccc4)CC3)c2c1 [Cpd. 317, 1-(6-methoxy-3-(4-(methylsulfonyl)piperazine-1-carbonyl)quinolin-4-yl)-4-phenylpiperidine-4-carbonitrile] was run?
**A.** > 6.30

**Q.** How did the pIC50 turn out when COc1ccc2c(N3CCC(C#N)(c4ccccc4)CC3)c(C(=O)N3CCN(S(C)(=O)=O)CC3)cnc2c1 [Cpd. 318, 1-(7-methoxy-3-(4-(methylsulfonyl)piperazine-1-carbonyl)quinolin-4-yl)-4-phenylpiperidine-4-carbonitrile] was run?
**A.** > 6.30

**Q.** How did the pIC50 turn out when CS(=O)(=O)N1CCN(C(=O)c2cnc3cc(F)c(F)cc3c2N2CCC(C#N)(c3ccccc3)CC2)CC1 [Cpd. 319, 1-(6,7-difluoro-3-(4-(methylsulfonyl)piperazine-1-carbonyl)quinolin-4-yl)-4-phenylpiperidine-4-carbonitrile] was run?
**A.** > 6.30

**Q.** CS(=O)(=O)N1CCN(C(=O)c2cnc3c(F)cc(F)cc3c2N2CCC(C#N)(c3ccccc3)CC2)CC1 [Cpd. 320, 1-(6,8-difluoro-3-(4-(methylsulfonyl)piperazine-1-carbonyl)quinolin-4-yl)-4-phenylpiperidine-4-carbonitrile] was tested. Which pIC50 did it give?
**A.** > 6.30

**Q.** How did the pIC50 turn out when COc1ccc2ncc(C(=O)N3CCN(S(C)(=O)=O)CC3)c(-c3ccc(C4(C#N)CC4)cc3)c2c1 [Cpd. 321, 1-(4-(6-methoxy-3-(4-(methylsulfonyl)piperazine-1-carbonyl)quinolin-4-yl)phenyl)cyclopropane-1-carbonitrile] was run?
**A.** > 6.30

**Q.** With COc1ccc2c(-c3ccc(C4(C#N)CC4)cc3)c(C(=O)N3CCN(S(C)(=O)=O)CC3)cnc2c1 [Cpd. 322, 1-(4-(7-methoxy-3-(4-(methylsulfonyl)piperazine-1-carbonyl)quinolin-4-yl)phenyl)cyclopropane-1-carbonitrile] as the compound, how does the pIC50 read?
**A.** > 6.30

**Q.** How did the pIC50 turn out when CS(=O)(=O)N1CCN(C(=O)c2cnc3cc(F)c(F)cc3c2-c2ccc(C3(C#N)CC3)cc2)CC1 [Cpd. 323, 1-(4-(6,7-difluoro-3-(4-(methylsulfonyl)piperazine-1-carbonyl)quinolin-4-yl)phenyl)cyclopropane-1-carbonitrile] was run?
**A.** > 6.30

**Q.** CS(=O)(=O)N1CCN(C(=O)c2cnc3c(F)cc(F)cc3c2-c2ccc(C3(C#N)CC3)cc2)CC1 [Cpd. 324, 1-(4-(6,8-difluoro-3-(4-(methylsulfonyl)piperazine-1-carbonyl)quinolin-4-yl)phenyl)cyclopropane-1-carbonitrile] was tested. Which pIC50 did it give?
**A.** > 6.30

**Q.** N#CC1(c2ccccc2)CCN(c2c(C(=O)Nc3cnn(CC(N)=O)c3)cnc3ccc(F)cc23)CC1 [Cpd. 352, N-(1-(2-amino-2-oxoethyl)-1H-pyrazol-4-yl)-4-(4-cyano-4-phenylpiperidin-1-yl)-6-fluoroquinoline-3-carboxamide] was tested. Which pIC50 did it give?
**A.** > 6.30

**Q.** How did the pIC50 turn out when COc1ccc2ncc(C(=O)N3CCN(C(=O)C4CC4)CC3)c(N3CCC4(CC3)OCCO4)c2c1 [Example 1, (4-(cyclopropanecarbonyl)piperazin-1-yl)(6-methoxy-4-(1,4-dioxa-8-azaspiro[4.5]decan-8-yl)quinolin-3-yl)methanone, TFA] was run?
**A.** 5.00 to 6.00

**Q.** With Cc1ccc2ncc(C(=O)N3CCN(C(=O)C4CC4)CC3)c(N3CCC4(CC3)OCCO4)c2c1 [Example 30, (4-(cyclopropanecarbonyl)piperazin-1-yl)(6-methyl-4-(1,4-dioxa-8-azaspiro[4.5]decan-8-yl)quinolin-3-yl)methanone] as the compound, how does the pIC50 read?
**A.** 5.00 to 6.00

**Q.** How did the pIC50 turn out when O=C(c1cnc2ccc(F)cc2c1N1CCC2(CC1)OCCO2)N1CCN(C(=O)C2CC2)CC1 [Example 31, (4-(cyclopropanecarbonyl)piperazin-1-yl)(6-fluoro-4-(1,4-dioxa-8-azaspiro[4.5]decan-8-yl)quinolin-3-yl)methanone] was run?
**A.** 5.00 to 6.00

**Q.** With O=C(c1cnc2ccccc2c1N1CCC2(CC1)OCCO2)N1CCN(C(=O)C2CC2)CC1 [Example 42, (4-(1,4-dioxa-8-azaspiro[4.5]decan-8-yl)quinolin-3-yl)(4-(cyclopropanecarbonyl)piperazin-1-yl)methanone] as the compound, how does the pIC50 read?
**A.** < 5.00

**Q.** With O=C(c1cnc2ccc(Cl)cc2c1N1CCC2(CC1)OCCO2)N1CCN(C(=O)C2CC2)CC1 [Example 45, (6-chloro-4-(1,4-dioxa-8-azaspiro[4.5]decan-8-yl)quinolin-3-yl)(4-(cyclopropanecarbonyl)piperazin-1-yl)methanone] as the compound, how does the pIC50 read?
**A.** 5.00 to 6.00

**Q.** COc1ccc2c(N3CCC4(CC3)OCCO4)c(C(=O)N3CCN(C(=O)C4CC4)CC3)cnc2c1 [Example 47, (4-(cyclopropanecarbonyl)piperazin-1-yl)(7-methoxy-4-(1,4-dioxa-8-azaspiro[4.5]decan-8-yl)quinolin-3-yl)methanone] was tested. Which pIC50 did it give?
**A.** 5.00 to 6.00
